The values below come from patent publication US8685408B2 (priority 2006, dated 2014).

For assay [1], the system named is EG7 tumor. Set-up: species or system C57BL6 mice. The following applies: mouse, in vivo, sc.
Another assay concerns Gb3. Details: species or system mice. The settings on record: mouse, in vivo.
For another assay, the system named is dendritic cells. Set-up: species or system mice. The following applies: mouse, in vivo.
In assay [2] the test system is EG7 tumor. Details: species or system C57BL6 mice. The following applies: mouse, in vivo, sc. This is another data set of the same source.
In assay [3] the test system is anti-OVA257-264 CD8^+T cells. Details: species or system C57BL/6 mice. The following applies: mouse, in vivo.

Like-named read-outs stand apart in the source and are kept apart here.

As to `CCCCCCCCCCCCCCCCCCCCCCCCCC(=O)N[C@@H](CC[C@H]1O[C@H](CO)[C@H](O)[C@H](O)[C@H]1O)[C@H](O)[C@H](O)CCCCCCCCCCCCCC` [C-αGalCer], the “growth of EG7 tumor” value in the assay with EG7 tumor [1] is given as “will not control the growth of the tumor”.
`CCCCCCCCCCCCCCCCCCCCCCCCCC(=O)N[C@@H](CO[C@H]1O[C@H](CO)[C@H](O)[C@H](O)[C@H]1O)[C@H](O)[C@H](O)CCCCCCCCCCCCCC` [α-GalCer, (2S,3S,4S)-1-O-(α-D-galactopyranosyloxy)-2-hexacosanoylamino-3,4-octadecanediol]: in the assay on Gb3, the “membrane expression of Gb3 on dendritic and B cells” value was “did not regulate”. For the same molecule, the “costimulatory molecules (CD86) and MHC class II / activation of dendritic cells” value in the assay with dendritic cells is “rapid increase”. Further, the “growth of EG7 tumor” value in the assay with EG7 tumor [2] is listed as “did not control the growth of the tumor”.
Poly (I:C): in the assay on dendritic cells, the “costimulatory molecules (CD86) and MHC class II / activation of dendritic cells” value is on record as “also activated dendritic cells”.

B1: OVA (protein, UniProt P01012 2-386, looked up)
Ovalbumin: GSIGAASMEFCFDVFKELKVHHANENIFYCPIAIMSALAMVYLGAKDSTRTQINKVVRFDKLPGFGDSIEAQCGTSVNVHSSLRDILNQITKPNDVYSFSLASRLYAEERYPILPEYLQCVKELYRGGLEPINFQTAADQARELINSWVESQTNGIIRNVLQPSSVDSQTAMVLVNAIVFKGLWEKAFKDEDTQAMPFRVTEQESKPVQMMYQIGLFRVASMASEKMKILELPFASGTMSMLVLLPDEVSGLEQLESIINFEKLTEWTSSNVMEERKIKVYLPRMKMEEKYNLTSVLMAMGITDVFSSSANLSGISSAESLKISQAVHAAHAEINEAGREVVGSAEAGVDAASVSEEFRADHPFLFCIKHIATNAVLFFGRCVSP
Regarding B1, in assay [3], the “induction of anti-OVA257-264 CD8^+T cells” value was “no significant induction”.
